The data set is described as follows: solvent given as SMILES.

Molecule `Cc1ccc(C(=O)/N=c2\oc3cccc4c5c(-c6ccccc6)oc6cccc(c(c2-c2ccccc2)c34)c65)cc1` had an emission maximum (in ClC(Cl)Cl) of 535 nm.
For the molecule `O=P(c1c2ccccc2cc2ccccc12)(c1c2ccccc2cc2ccccc12)c1c2ccccc2cc2ccccc12`, the emission maximum (in C1CCOC1) is given as 452 nm.
As to `COc1ccc(C2=[N+]3C(=Nc4c(-c5cc(OC)c(OC)c(OC)c5Br)c(-c5ccc(C(C)(C)C)cc5)c(-c5ccc(OC)cc5)n4[B-]3(F)F)C(c3cc(OC)c(OC)c(OC)c3Br)=C2c2ccc(C(C)(C)C)cc2)cc1`, the emission maximum (in Cc1ccccc1) was 740 nm.
As to `COc1ccc(-n2nc(C#N)c(N3CCCC3)n2)cc1OC`, for the setting “in CC#N”, the emission maximum turned out to be 417 nm.
`COc1ccc(-c2ncccn2)cc1` came in with an emission maximum (in ClCCl) of 356 nm.
With `CC(C)(C)c1ccc(C2=C(c3ccc(N(c4ccccc4)c4ccccc4)cc3)S(=O)(=O)c3c2sc(-c2ccc(N(c4ccccc4)c4ccccc4)cc2)c3-c2ccc(C(C)(C)C)cc2)cc1`, the emission maximum (in C1CCOC1) turned out to be 591 nm.
Take `c1ccc(C2=C3C4=C(C5=[N+]3[B-]3(Oc6ccccc65)Oc5ccccc5-c5c6c(c2n53)C2CCC6CC2)C2CCC4CC2)cc1` (centres undefined): the emission maximum (in ClCCl) is 645 nm.
For `FC(F)(F)c1ccc(-c2nnc(-c3cc(-n4c5ccccc5c5ccccc54)c(-n4c5ccccc5c5ccccc54)cc3-c3nnc(-c4ccc(C(F)(F)F)cc4)o3)o2)cc1`, the emission maximum (in CC#N) is 544.97 nm, the emission maximum (in Cc1ccccc1) came to 487 nm and the emission maximum (in ClCCl) was 519.92 nm.
With `COc1ccc(-c2nc(N)nc(C#N)c2C#N)cc1OC`, the emission maximum (in C1COCCO1) worked out at 428 nm; the emission maximum (in CC#N) is listed as 456 nm; the emission maximum (in CC(C)=O) is 430 nm; the emission maximum (in CCO) is reported as 436 nm; the emission maximum (in CCOC(C)=O) was found to be 442 nm; the emission maximum (in CO) came to 442 nm.
Where the note is “in C1COCCO1”, `c1ccc(-c2ccc(-c3ccc(-c4cc(-c5ccc(-c6ccc(-c7ccccc7)cc6)cc5)cc(-c5ccc(-c6ccc(-c7ccccc7)cc6)cc5)c4)cc3)cc2)cc1` gave an emission maximum of 375 nm.
In the case of `CCN1c2ccc(-c3cc(C(F)(F)F)[nH]n3)cc2Sc2cc(-c3cc(C(F)(F)F)[nH]n3)ccc21`, the emission maximum by setting is: (in C1CCOC1) 469 nm; (in CC#N) 469 nm; (in CN(C)C=O) 464 nm; (in ClCCl) 467 nm; (in c1ccccc1) 463 nm.
For the molecule `c1ccc2c(c1)ncc1ccc3cnc4ccccc4c3c12`, for the setting “in CC#N”, the emission maximum is on record as 408 nm.
With `Cc1cc(-c2nc(-c3ccccc3)nc(-c3ccccc3)n2)c(C)cc1-c1ccc2c(c1)C1(c3ccccc3-c3ccccc31)c1ccccc1N2c1ccccc1`, the emission maximum (in c1cc(-c2cccc(-n3c4ccccc4c4ccccc43)c2)cc(-n2c3ccccc3c3ccccc32)c1) is 446 nm.
Regarding `CCN(CC)c1ccc2ccc(=O)oc2c1`, the emission maximum by setting is: (in CC(C)=O) 430 nm; (in CCCCCC) 392 nm; (in CCCCCCC) 390 nm; (in CCCCO) 442 nm; (in CCCO) 442 nm; (in CCO) 443 nm. Moreover, the emission maximum (in CCOCC) is 405 nm; the emission maximum (in CN(C)C=O) is given as 440 nm; the emission maximum (in CO) is 445 nm; the emission maximum (in Cc1ccccc1) amounted to 418 nm; the emission maximum (in ClC(Cl)(Cl)Cl) was determined as 412 nm; the emission maximum (in ClC(Cl)Cl) is listed as 435 nm. The emission maximum turned out to be 466 nm (in ClCCl), 445 nm (in OCCO) and 395 nm (in c1ccccc1).
On to `O=C(O)C1=C/C(=C/C=[N+]2/c3cc(O)c(C[C@@H]4O[C@H](CO)[C@@H](O)C(O)[C@H]4O)cc3C[C@H]2C(=O)O)C[C@@H](C(=O)O)N1` (some centres undefined), for which the emission maximum runs as follows: (in CO) 611 nm; (in O) 640 nm; (in OCCO) 607 nm; (in [2H]O[2H]) 640 nm.
As to `CN(C)c1ccc(/C=C/C=C/C=C/c2ccc(B(O)O)cc2)cc1`, the emission maximum (in C1CCCCC1) turned out to be 470 nm.
As to `CC(C)c1cccc(C(C)C)c1N1C(=O)c2ccc3cc4c(cc5ccc6c7c(ccc4c57)C(=O)N(c4c(C(C)C)cccc4C(C)C)C6=O)c4ccc(c2c34)C1=O`, for the setting “in ClCCl”, the emission maximum was found to be 668 nm.
For the molecule `[O-]c1ccc2ccccc2c1`, the emission maximum (in O) is 414 nm.
For `N#Cc1ccc(/C2=C3N=C(C(c4ccccc4)=C/3c3ccccc3)/C(c3ccc(C#N)cc3)=c3\[nH]/c(c(-c4ccccc4)c3-c3ccccc3)=C(/c3ccc(C#N)cc3)C3=N/C(=C(/c4ccc(C#N)cc4)c4[nH]c2c(-c2ccccc2)c4-c2ccccc2)C(c2ccccc2)=C3c2ccccc2)cc1`, where the note is “in ClCCl”, the emission maximum came to 725 nm.
`Cc1cc(C)c(C2=C3C=CC(c4ccc5ccccc5c4)=[N+]3[B-](F)(F)n3c2ccc3-c2ccc3ccccc3c2)c(C)c1` displayed an emission maximum (in ClC(Cl)Cl) of 618 nm.
On to `CC(C)(C)NC1=C2C=CC=[N+]2[B-](F)(F)n2cccc21`, for which the emission maximum reads like this: (in C1CCCCC1) 503 nm; (in CC(C)=O) 492 nm; (in CCO) 494 nm; (in CCOC(C)=O) 498 nm; (in CO) 491 nm; (in OCC(F)(F)F) 497.5 nm.
Under “in C1CCOC1”, `CCCCCCCCCc1c2ccccc2cc2c1oc1c3c(c4ccccc4c12)-c1c(c2oc4cc5ccccc5cc4c2c2ccccc12)OCO3` showed an emission maximum of 416 nm.
`CCCCN1C(=O)c2cc(Br)c3c4c(Br)c(Br)c5c6c(cc(Br)c(c7c(Br)c(Br)c(c2c37)C1=O)c64)C(=O)N(CCCC)C5=O` registered an emission maximum (in ClC(Cl)Cl) of 580 nm.
With `c1ccc2c(-c3ccc(-n4c5ccccc5c5ccccc54)cc3)c3c(nc2c1)-c1cc2c(cc1CC3)-c1nc3ccccc3c(-c3ccc(-n4c5ccccc5c5ccccc54)cc3)c1CC2`, the emission maximum (in ClC(Cl)Cl) came to 385 nm.
Regarding `C[Si](C)(C)c1sc([Si](C)(C)C)c2c1sc1c2sc2sc3sc4c(sc5c([Si](C)(C)C)sc([Si](C)(C)C)c54)c3c21`, where the note is “in ClC(Cl)Cl”, the emission maximum came to 360 nm.
On the same count and under the same terms, as for `COC(=O)c1ccc2cc(C#N)c3ccc4ccccc4c3c2c1`, the figure is 422 nm.
Regarding `c1ccc(-c2nc(-c3ccc(-c4nc(-c5ccccc5)c(-c5ccccc5)o4)cc3)oc2-c2ccccc2)cc1`, the emission maximum (in C1COCCO1) is listed as 428 nm.
For `CC1=[N+]2C(=C(Oc3ccccc3)c3ccc(C)n3[B-]2(F)F)C=C1c1cc2n(c1)[B-](F)(F)[N+]1=CC=CC1=C2c1c(C)cc(C)cc1C`, the emission maximum worked out at 630 nm (in C1CCCCC1) and 665 nm (in CCOC(C)=O).
Molecule `CNc1ccc2nc3cc(Cl)c(Cl)cc3nc2c1` showed an emission maximum (in CCO) of 599 nm.
Consider `c1ccc(N(c2ccccc2)c2ccc3c4cccc5c(N(c6ccccc6)c6ccccc6)ccc(c6cccc2c63)c54)cc1`, for which the emission maximum runs as follows: (in C1CCCCC1) 531 nm; (in C1CCOC1) 545 nm; (in CC#N) 548 nm; (in Cc1ccccc1) 541 nm; (in ClCCl) 547 nm.
As for `CCCCCCCCN1c2ccccc2Sc2cc(/C=C/c3ccc(N(c4ccc(/C=C/c5ccc6c(c5)Sc5ccccc5N6CCCCCCCC)cc4)c4ccc(/C=C/c5ccc(/C=C/c6ccc(N(c7ccc(/C=C/c8ccc9c(c8)Sc8ccccc8N9CCCCCCCC)cc7)c7ccc(/C=C/c8ccc9c(c8)Sc8ccccc8N9CCCCCCCC)cc7)cc6)c6nsnc56)cc4)cc3)ccc21`, the emission maximum is, setting by setting: (in C1CCOC1) 654 nm; (in CCOC(C)=O) 644 nm; (in CN(C)C=O) 750 nm; (in Cc1ccccc1) 620 nm; (in ClC(Cl)Cl) 663 nm; (in ClCCl) 710 nm.
